Literature values, collected in US6632827B2 (Sepracor Inc., priority 1996, dated 2003).
pEC50: −log10 of the molar value. Blank lines part the entries; values can stand above or below the compound they belong to.

Experiments:
5HT4 receptors = target: T1, 5HT4 receptors (Mus musculus, UniProt P97288); conditions: cultured mouse embryo colliculi neurons; read-out: EC50 concentration, cAMP generation as endpoint for 5HT4 activity
T1 construct: Using cultured mouse embryo colliculi neurons and cAMP generation as an endpoint for designating 5HT4 activity; host or cells: cultured mouse embryo colliculi neurons

[1] = co-administered ketoconazole
beta-adrenergic = conditions: S-enantiomer vs R-enantiomer

T1 sequence (P97288 whole entry): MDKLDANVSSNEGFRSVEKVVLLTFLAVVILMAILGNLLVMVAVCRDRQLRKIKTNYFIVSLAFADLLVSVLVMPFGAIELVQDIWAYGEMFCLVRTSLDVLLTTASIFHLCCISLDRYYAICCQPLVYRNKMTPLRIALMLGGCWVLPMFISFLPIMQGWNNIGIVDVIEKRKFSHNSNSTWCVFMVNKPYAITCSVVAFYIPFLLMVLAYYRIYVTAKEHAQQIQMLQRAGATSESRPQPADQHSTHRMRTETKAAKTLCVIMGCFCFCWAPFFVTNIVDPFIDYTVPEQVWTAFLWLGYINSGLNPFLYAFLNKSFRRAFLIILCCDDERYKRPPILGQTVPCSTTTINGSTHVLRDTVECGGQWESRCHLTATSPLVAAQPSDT

- pEC50 (5HT4 receptors): 7.15
- Bioavailability of the parent compound (oral administration to humans): 40-50%
- Fraction of dose metabolized (oxidative N-dealkylation or aromatic hydroxylation): More than 90%
- Increase in steady-state plasma levels [1]: 8 fold
SMILES: COc1cc(N)c(Cl)cc1C(=O)N[C@H]1CCN(CCCOc2ccc(F)cc2)C[C@H]1OC (racemic) [(±) Cisapride, cis-4-amino-5-chloro-N-[1-[3-(4-fluorophenoxy)propyl]-3-methoxy-4-piperidinyl]-2-methoxybenzamide]

SMILES: CC(C)NCC(O)COc1cccc2ccccc12 (stereo not drawn) [propranolol]
- Potency of S-enantiomer relative to R-enantiomer (beta-adrenergic): 100 times

- Share of the drug found in urine (urine of humans 72 hours after dosing of cisapride): 50-80%
SMILES: COc1cc(N)c(Cl)cc1C(=O)NC1CCNCC1OC (racemic) [(±) Norcisapride, 4-amino-5-chloro-N-(3-methoxy-4-piperidinyl)-2 methoxybenzamide]
